Assay results from patent EP0306300B1, “Pyrrolo(1,2-a)imidazole and imidazo(1,2-a)pyridine derivatives and their use as 5-lipoxygenase pathway inhibitors” (SMITHKLINE BEECHAM CORPORATION, priority 1987, dated 1989).
Like-named read-outs stand apart in the source and are kept apart here.

What was measured:
[1] = molecular target: T1, 5-Lipoxygenase (Rattus norvegicus, UniProt P12527); experiment: Assay of 5-lipoxygenase activity in RBL-1 high speed supernatant; format: biochemical; details: read-out: 5-LO IC50
T1 construct: the supernatant was centrifuged at 100,000 x g for 60 min; host or cells: RBL-1 cells (soluble cell extract, high-speed supernatant)
T1 sequence (P12527 1-673): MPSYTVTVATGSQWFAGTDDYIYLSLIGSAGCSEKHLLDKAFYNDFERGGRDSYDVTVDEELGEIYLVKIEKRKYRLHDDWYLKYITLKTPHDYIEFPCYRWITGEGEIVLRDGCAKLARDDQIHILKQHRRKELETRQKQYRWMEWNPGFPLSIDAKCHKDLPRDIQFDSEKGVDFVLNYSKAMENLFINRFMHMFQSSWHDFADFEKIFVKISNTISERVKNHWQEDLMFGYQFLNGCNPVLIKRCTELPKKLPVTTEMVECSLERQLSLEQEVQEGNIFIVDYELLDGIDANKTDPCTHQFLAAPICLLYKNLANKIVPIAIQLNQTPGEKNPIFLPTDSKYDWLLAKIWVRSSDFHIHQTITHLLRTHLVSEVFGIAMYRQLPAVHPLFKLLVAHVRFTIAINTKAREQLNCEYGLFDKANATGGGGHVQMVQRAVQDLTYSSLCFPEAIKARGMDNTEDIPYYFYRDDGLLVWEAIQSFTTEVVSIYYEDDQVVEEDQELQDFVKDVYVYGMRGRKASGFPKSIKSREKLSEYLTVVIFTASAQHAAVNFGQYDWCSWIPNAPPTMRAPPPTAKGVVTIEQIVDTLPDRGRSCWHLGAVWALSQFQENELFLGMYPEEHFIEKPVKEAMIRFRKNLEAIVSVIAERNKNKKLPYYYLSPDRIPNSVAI
Protocol: For in vitro experiments, compounds were dissolved at appropriate concentrations in ethanol (final concentration 1.0%) and then diluted to final concentrations using the buffers indicated in the text.
The activities of these enzymes in extracts of RBL-1 cells were assayed using the method of Jakschik and Lee, Nature, 287, 51-52 (1980). RBL-1 cells were obtained from the American Type Culture Collection (#CRL 1378) and were grown at 37°C (5% CO₂ in air) in spinner culture in MEM supplemented with 10% heat inactivated fetal calf serum. Harvested cells were washed with 50 mM sodium phosphate buffer, pH 7.0, containing 1 mM EDTA and 0.1% gelatin, resuspended in fresh buffer (5 x 10⁷ cells/ml) and disrupted by nitrogen cavitation using the Parr bomb at 750 psi for 10 min. The broken cell extract was then centrifuged at 10,000 x g for 20 minutes (min) and the supernatant was centrifuged at 100,000 x g for 60 min. Aliquots (0.25 mls) of the supernatant were preincubated with or without drugs for 10 min, after which 10 ul CaCl₂ (2 mM) was added and the reaction was initiated with 2.5 »l of 2.5 mM arachidonic acid-1-¹⁴C (final concentration was 25 »M; specific activity 20,000 dpm/nmole). After incubation for 5 minutes at 37°C, the reaction was terminated by addition of 2 volumes (0.5 ml) ice cold acetone and the sample was allowed to deproteinize on ice for 10 minutes prior to centrifugation at 1,000 x g for 10 minutes. The deproteinized supernatant was adjusted to pH 3.5 with 2N formic acid and extracted with 2 volumes of ice cold ethyl acetate. The extracted samples were dried under argon, redissolved in ethyl acetate and applied to Whatman LK5D thin layer chromatography (TLC) plates which were developed using the A-9 solvent system [organic phase of ethyl acetate: […]:acetic acid: water (110:50:20:10)] described by Hamberg and Samuelsson, J. Biol. Chem., 241, 257-263 (1966). Arachidonic acid, 5-HETE, LTB₄ and PGD₂ were quantified with a Berthold LB 2832 autoscanner.
Under these conditions, only the 5-lipoxygenase pathway metabolites were detectable. The 5-HETE and di-HETEs were formed at a linear rate, and […] amounts of the arachidonic acid-1-¹⁴C substrate were utilized.

[2] = test system: cynomolgus monkeys; experiment: CNS activity / oral toxicity in cynomolgus monkeys; details: cynomolgus monkey, in vivo
Protocol: Additional monkeys tolerated repeated doses of 45 mg/kg or 30 mg/kg and one animal tolerated an escalating dose schedule of 30-90-120 mg/kg.
The two monkeys administered 400 mg/kg were repeatedly administered this dose for 7 consecutive days; each animal experienced emesis within 1 to 5 hours of dosing after the 1st, 3rd and 4th doses, whereas only the female experienced emesis after the 5th, 6th and 7th doses. A complete necropsy, serum clinical chemistry, hematology and histological examination was completed on both monkeys.

[3] = test system: arachidonic acid-induced edema in mice; experiment: Arachidonic acid-induced mouse ear inflammation (ear swelling); format: in vivo, male Balb/c mice; details: 1 h, 50 mg/kg s.c. or i.p., ear thickness one hour after 2 mg arachidonic acid
[4] = In vivo metabolism (statement only)
[5] = LTB4 production by RBL-1 high speed supernatant

CSc1ccc(-c2nc3n(c2-c2ccncc2)CCC3)cc1 [Compound 1, 2-(4-Methylthiophenyl)-3-(4-pyridyl)-6,7-dihydro-[5H]-pyrrolo[1,2-a]imidazole]
IC50 [1, 5]: 20 µM
Adverse CNS activity [2]: +
CNS toxicity / adverse CNS effects (comparative statement) [2]: less CNS toxicity than prior art compound A
inhibition at 50 mg/kg [3]: 62%

C[S+]([O-])c1ccc(-c2nc3n(c2-c2ccncc2)CCC3)cc1 (stereo not shown) [Compound 2, 2-(4-Methylsulfinylphenyl)-3-(4-pyridyl)-6,7-dihydro-[5H]-pyrrolo[1,2-a]imidazole]
IC50 [1, 5]: > 100 µM
IC50 ([1]; total HETE and Di-HETE production by RBL-1 high speed supernatant): > 100 µM
metabolism in vivo [4]: metabolized in vivo to compound D
